# Test results published in patent publication US9833497B2, “Human originated EGF domain proteins and use of the same” (CHENGDU SOURCEBIO LIMITED-LIABILITY COMPANY, priority 2013, dated 2017).
# What was measured:
# Type in all cases: cell-based
# Klebsiella pneumonia = assay: MIC against Gram-negative bacteria: Klebsiella pneumonia; conditions: 10 h cultivation at 37° C.; for MIC against K. pneumonia: Klebsiella pneumonia; for MIC against K. pneumonia / MIC (μg/mL) K. pneumonia: 5×10^5 CFU/mL
# In short: (§1)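 LB broth cultures at McFarland 0.5, spun down, resuspended, diluted to 5×10^5 CFU/mL final. Two-fold serial dilutions of purified human EGF domain proteins, triplicate. 37° C, 175 rpm shaking. Endpoint: no visible growth.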
# Citrobacter diversus = assay: MIC against Gram-negative bacteria: Citrobacter diversus; conditions: 10 h cultivation at 37° C.; for MIC against C. diversus: Citrobacter diversus; for MIC against C. diversus / MIC (μg/mL) C. diversus: 5×10^5 CFU/mL
# In short: as §1
# Moraxella catarrhalis = assay: MIC against Gram-negative bacteria: Moraxella catarrhalis; conditions: 10 h cultivation at 37° C.; for MIC against M. catarrhalis: Moraxella catarrhalis; for MIC against M. catarrhalis / MIC (μg/mL) M. catarrhalis: 5×10^5 CFU/mL
# In short: as §1
# Proteus vulgaris = assay: MIC against Gram-negative bacteria: Proteus vulgaris; conditions: 10 h cultivation at 37° C.; for MIC against P. vulgaris: Proteus vulgaris; for MIC against P. vulgaris / MIC (μg/mL) P. vulgaris: 5×10^5 CFU/mL
# In short: as §1
# Serratia marcescens = assay: MIC against Gram-negative bacteria: Serratia marcescens; conditions: 10 h cultivation at 37° C.; for MIC against S. marcescens: Serratia marcescens; for MIC against S. marcescens / MIC (μg/mL) S. marcescens: 5×10^5 CFU/mL
# In short: as §1
# Enterobacter cloacae = assay: MIC against Gram-negative bacteria: Enterobacter cloacae; conditions: 10 h cultivation at 37° C.; for MIC against E. cloacae: Enterobacter cloacae; for MIC against E. cloacae / MIC (μg/mL) E. cloacae: 5×10^5 CFU/mL
# In short: as §1
# E. coli BL21 = assay: MIC against Gram-negative bacteria: E. coli BL21; conditions: E. coli BL21, 10 h cultivation at 37° C.; for MIC against E. coli BL21 / MIC (μg/mL) E. coli BL21: 5×10^5 CFU/mL
# In short: as §1
# Aeromonas hydrophila = assay: MIC against Gram-negative bacteria: Aeromonas hydrophila; conditions: 10 h cultivation at 37° C.; for MIC against A. hydrophila: Aeromonas hydrophila; for MIC against A. hydrophila / MIC (μg/mL) A. hydrophila: 5×10^5 CFU/mL
# In short: as §1
# E. coli DH5α = assay: Antibacterial activity: MIC and growth curve against E. coli DH5α in 96-well plate; conditions: minimal inhibitory concentration against E. coli DH5α; 96-well plate, 5×10^5 CFU/mL, 37° C., judged after 8 h
# In short: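 MIC taken as lowest protein level with no bacterial growth, tracked by A600 every 30 min during 37 °C, 175 rpm culture. Two-fold protein series 50-12.5 μg/mL final, triplicate wells, against 5×10^5 CFU/mL of LB-washed mid-log cells.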
# Proteus mirabilis = assay: MIC against Gram-negative bacteria: Proteus mirabilis; conditions: 10 h cultivation at 37° C.; for MIC against P. mirabilis: Proteus mirabilis; for MIC against P. mirabilis / MIC (μg/mL) P. mirabilis: 5×10^5 CFU/mL
# In short: as §1
# Pseudomonas aeruginosa = assay: MIC against Gram-negative bacteria: Pseudomonas aeruginosa; conditions: 10 h cultivation at 37° C.; for MIC against P. aeruginosa: Pseudomonas aeruginosa; for MIC against P. aeruginosa / MIC (μg/mL) P. aeruginosa: 5×10^5 CFU/mL
# In short: as §1
Substance,MIC (E. coli DH5α) [µg/mL],MIC (μg/mL) K. pneumonia (Klebsiella pneumonia; K. pneumonia) [µg/mL],MIC (μg/mL) C. diversus (Citrobacter diversus; C. diversus) [µg/mL],MIC (μg/mL) M. catarrhalis (Moraxella catarrhalis; M. catarrhalis) [µg/mL],MIC (μg/mL) P. vulgaris (Proteus vulgaris; P. vulgaris) [µg/mL],MIC (μg/mL) S. marcescens (Serratia marcescens; S. marcescens) [µg/mL],MIC (μg/mL) E. cloacae (Enterobacter cloacae; E. cloacae) [µg/mL],MIC (μg/mL) E. coli BL21 (E. coli BL21) [µg/mL],MIC (μg/mL) A. hydrophila (Aeromonas hydrophila; A. hydrophila) [µg/mL],MIC (μg/mL) P. mirabilis (Proteus mirabilis; P. mirabilis) [µg/mL],MIC (μg/mL) P. aeruginosa (Pseudomonas aeruginosa; P. aeruginosa) [µg/mL],other results
PRT902 (DIDDCRPNPCHNGGSCTDGINTAFCDCLPGFRGTFCE; listed as Homo sapiens),50,,,,,,,,,,,MIC (Klebsiella pneumonia; K. pneumonia): 25 µg/mL; MIC (Citrobacter diversus; C. diversus): 50 µg/mL; MIC (Moraxella catarrhalis; M. catarrhalis): 25 µg/mL; MIC (Proteus vulgaris; P. vulgaris): 25 µg/mL; MIC (Serratia marcescens; S. marcescens): 50 µg/mL; MIC (Enterobacter cloacae; E. cloacae): 50 µg/mL; MIC (E. coli BL21): 25 µg/mL; MIC (Aeromonas hydrophila; A. hydrophila): 12.5 µg/mL; MIC (Proteus mirabilis; P. mirabilis): 12.5 µg/mL; MIC (Pseudomonas aeruginosa; P. aeruginosa): 12.5 µg/mL
PRT1393 (EERSCHSHCTEHGQCKDGKCECSPGWEGDHCT; listed as Homo sapiens),25,,,,,,,,,,,MIC against K. pneumonia (Klebsiella pneumonia): 50 µg/mL; MIC against C. diversus (Citrobacter diversus): 25 µg/mL; MIC against M. catarrhalis (Moraxella catarrhalis): 50 µg/mL; MIC against P. vulgaris (Proteus vulgaris): 50 µg/mL; MIC against S. marcescens (Serratia marcescens): 12.5 µg/mL; MIC against E. cloacae (Enterobacter cloacae): 25 µg/mL; MIC against E. coli BL21 (E. coli BL21): 12.5 µg/mL; MIC against A. hydrophila (Aeromonas hydrophila): 12.5 µg/mL; MIC against P. mirabilis (Proteus mirabilis): 12.5 µg/mL; MIC against P. aeruginosa (Pseudomonas aeruginosa): 25 µg/mL
PRT887 (LNDACISNPCNEGSNCDTNPVNGKAICTCPSGYTGPACS; listed as Homo sapiens),12.5,25,12.5,25,12.5,50,50,25,25,50,12.5,
PRT174 (CASSPCANGGTCRDGVNDFSCTCPPGYTGRNC; listed as Homo sapiens),50,50,25,50,50,12.5,25,12.5,12.5,12.5,25,
PRT230 (DVDECADPRACPEHATCNNTVGNYSCFCNPGFESSSGHLSFQGLKASCE; listed as Homo sapiens),25,12.5,25,12.5,12.5,50,25,12.5,12.5,50,25,
PRT1437 (DVNECADGAHPPCHASARCRNTKGGFQCLCADPYELGDDGRTCV; listed as Homo sapiens),12.5,,,,,,,,,,,MIC against K. pneumonia (Klebsiella pneumonia): 12.5 µg/mL; MIC against C. diversus (Citrobacter diversus): 12.5 µg/mL; MIC against M. catarrhalis (Moraxella catarrhalis): 12.5 µg/mL; MIC against P. vulgaris (Proteus vulgaris): 12.5 µg/mL; MIC against S. marcescens (Serratia marcescens): 50 µg/mL; MIC against E. cloacae (Enterobacter cloacae): 12.5 µg/mL; MIC against E. coli BL21 (E. coli BL21): 25 µg/mL; MIC against A. hydrophila (Aeromonas hydrophila): 12.5 µg/mL; MIC against P. mirabilis (Proteus mirabilis): 25 µg/mL; MIC against P. aeruginosa (Pseudomonas aeruginosa): 12.5 µg/mL
PRT253 (DYCSQNTCLNGGKCSWTHGAGYVCKCPPQFSGKHCE; listed as Homo sapiens),12.5,25,12.5,25,25,12.5,12.5,25,25,12.5,12.5,
